Experimental data: article PMC9304322, “Targeting retinoic acid receptor alpha-corepressor interaction activates chaperone-mediated autophagy and protects against retinal degeneration” (Nature Communications, 2022)
Where “and” joins values, the source holds several entries; their conditions need not be identical. Identical values can stand only once.

Key:
[1] = test system: NIH3T3 stably expressing the KFERQ-PS-Dendra; test: CMA activity, KFERQ-PS-Dendra fluorescent reporter in NIH3T3 mouse fibroblasts; type: cell-based; parameters: CMA activity (Fig. 1d), MEAN / CMA activity (Fig. 1e-g), mean / CMA activity (Fig. 1d), individual experiments / CMA activity, mean (Fig. S2c, second panel) / CMA activity, mean (Fig. S2c, first panel) / CMA activity, mean (Fig. S2c, third panel): unit not given here; details: for CMA activity (Fig. 1e-g), mean: n = 4
Procedure: Cells were transduced with lentivirus carrying the KFERQ-PS-Dendra reporter as before. Cells were photoactivated by exposure to a 3.5 mA (current constant) light emitting diode (LED: Norlux, 405 nm) for 3 min and then plated in glass-bottom 96 well plates. At the desired times, cells were fixed with 4% PFA and imaged using high-content microscopy (Operetta system, Perkin Elmer). Images were quantified using the manufacturer’s software in a minimum of 1,200 cells in 9 independent fields per well. […] This was particularly important in the case of primary human cells where the efficiency of transduction was ~65%. To avoid confounding effects for drug-induced changes in cell volume or adherence to the plate that could bring a fraction of the cells per field outside of focus, we set a threshold to count only […] that have at least 1/10 of the average number of […] detected in the untreated wells for each cell type (3–4 puncta/cell in the case of NIH3T3 and N2a cells and 5 puncta/cell in primary human fibroblasts).

[2] = test system: NIH3T3 cells stably expressing the mCherry-GFP-LC3 reporter; test: Macroautophagy activity, mCherry-GFP-LC3 reporter; type: cell-based, mouse
Procedure: Cells were transduced with a lentiviral vector expressing mCherry-GFP-LC3[35], fixed and flux determined as the conversion of dual fluorescence puncta (autophagosomes) into only red fluorescent puncta (autolysosomes). Flux was also measured by immunoblot for LC3 in cells incubated for 6 h with 20 mM NH4Cl/100 μM leupeptin, by discounting the intensity of LC3 in non-treated cells from that in cells treated with the inhibitors.

[3] = c0 = 2 (axis unlabelled; ANOVA calls row factor Time)

Q: Which results are given for Cc1ccc(C2=Nc3ccc(Cl)cc3OC2)cc1 [AR7, reference compound]?
A: CMA activity (Fig. 1d), MEAN ([1]; 20 μM of each compound, n = 3 independent experiments): 1.943; CMA activity (Fig. 1d), individual experiments ([1]; 20 μM of each compound, single experiments): 1.682 and 2.334 and 1.814; CMA activity (Fig. 1e-g), mean ([1]; 12h, concentration 0.02 (unit not given)): 12.0505; CMA activity (Fig. 1e-g), mean ([1]; 12h, concentration 0.2): 11.7342; CMA activity (Fig. 1e-g), mean ([1]; 12h, concentration 2): 11.803; CMA activity (Fig. 1e-g), mean ([1]; 12h, concentration 5): 19.8949; CMA activity (Fig. 1e-g), mean ([1]; 12h, concentration 10): 20.5334; CMA activity (Fig. 1e-g), mean ([1]; 12h, concentration 20): 21.2219; CMA activity (Fig. 1e-g), mean ([1]; 12h, concentration 30): 22.9989; CMA activity (Fig. 1e-g), mean ([1]; 12h, concentration 40): 22.6487; CMA activity (Fig. 1e-g), mean ([1]; 12h, concentration 50): 26.5841; CMA activity (Fig. 1e-g), mean ([1]; 24h, concentration 0.02): 9.918; CMA activity (Fig. 1e-g), mean ([1]; 24h, concentration 0.2): 11.4731; CMA activity (Fig. 1e-g), mean ([1]; 24h, concentration 2): 13.7252; CMA activity (Fig. 1e-g), mean ([1]; 24h, concentration 5): 18.3275; CMA activity (Fig. 1e-g), mean ([1]; 24h, concentration 10): 23.1811; CMA activity (Fig. 1e-g), mean ([1]; 24h, concentration 20): 24.726; CMA activity (Fig. 1e-g), mean ([1]; 24h, concentration 30): 25.9835; CMA activity (Fig. 1e-g), mean ([1]; 24h, concentration 40): 28.2999; CMA activity (Fig. 1e-g), mean ([1]; 24h, concentration 50): 27.6884; CMA activity (Fig. 1h-j), mean, untreated (0) = 1 ([1]; concentration 0.2, 12+12w (12 h, then 12 h after washing out)): 0.9356; CMA activity (Fig. 1h-j), mean, untreated (0) = 1 ([1]; concentration 0.2, 12h): 1.057; CMA activity (Fig. 1h-j), mean, untreated (0) = 1 ([1]; concentration 0.2, 24h): 0.9789; CMA activity (Fig. 1h-j), mean, untreated (0) = 1 ([1]; concentration 2, 12+12w): 0.9942; CMA activity (Fig. 1h-j), mean, untreated (0) = 1 ([1]; concentration 2, 12h): 1.064; CMA activity (Fig. 1h-j), mean, untreated (0) = 1 ([1]; concentration 2, 24h): 1.171; CMA activity (Fig. 1h-j), mean, untreated (0) = 1 ([1]; concentration 5, 12+12w): 1.015; CMA activity (Fig. 1h-j), mean, untreated (0) = 1 ([1]; concentration 5, 12h): 1.7927; CMA activity (Fig. 1h-j), mean, untreated (0) = 1 ([1]; concentration 5, 24h): 1.564; CMA activity (Fig. 1h-j), mean, untreated (0) = 1 ([1]; concentration 10, 12+12w): 0.9858; CMA activity (Fig. 1h-j), mean, untreated (0) = 1 ([1]; concentration 10, 12h): 1.85; CMA activity (Fig. 1h-j), mean, untreated (0) = 1 ([1]; concentration 10, 24h): 1.978; CMA activity (Fig. 1h-j), mean, untreated (0) = 1 ([1]; concentration 20, 12+12w): 0.9968; CMA activity (Fig. 1h-j), mean, untreated (0) = 1 ([1]; concentration 20, 12h): 1.912; CMA activity (Fig. 1h-j), mean, untreated (0) = 1 ([1]; concentration 20, 24h): 2.11; CMA activity (Fig. 1h-j), mean, untreated (0) = 1 ([1]; concentration 30, 12+12w): 1.224; CMA activity (Fig. 1h-j), mean, untreated (0) = 1 ([1]; concentration 30, 12h): 2.072; CMA activity (Fig. 1h-j), mean, untreated (0) = 1 ([1]; concentration 30, 24h): 2.217; effect on macroautophagy ([2]; NIH3T3, MRT-sensitive proteolysis, LC3-II flux, mCherry-GFP-LC3 reporter): did not have the inhibitory effect on macroautophagy; APG (Fig. S3e) [2, 3]: 0.9242; AUT (Fig. S3e) [2, 3]: 2.505; AV (Fig. S3e) [2, 3]: 3.429; APG (Fig. S3e) ([2]; c0 = 5 (axis unlabelled)): 0.8222; AUT (Fig. S3e) ([2]; c0 = 5 (axis unlabelled)): 2.321; AV (Fig. S3e) ([2]; c0 = 5 (axis unlabelled)): 3.1431; APG (Fig. S3e) ([2]; c0 = 10 (axis unlabelled)): 0.7738; AUT (Fig. S3e) ([2]; c0 = 10 (axis unlabelled)): 2.246; AV (Fig. S3e) ([2]; c0 = 10 (axis unlabelled)): 3.0194; APG (Fig. S3e) ([2]; c0 = 15 (axis unlabelled)): 0.7216; AUT (Fig. S3e) ([2]; c0 = 15 (axis unlabelled)): 2.244; AV (Fig. S3e) ([2]; c0 = 15 (axis unlabelled)): 2.965; APG (Fig. S3e) ([2]; c0 = 20 (axis unlabelled)): 0.9029; AUT (Fig. S3e) ([2]; c0 = 20 (axis unlabelled)): 2.059; AV (Fig. S3e) ([2]; c0 = 20 (axis unlabelled)): 2.962; APG (Fig. S3e) ([2]; c0 = 25 (axis unlabelled)): 0.9112; AUT (Fig. S3e) ([2]; c0 = 25 (axis unlabelled)): 2.774; AV (Fig. S3e) ([2]; c0 = 25 (axis unlabelled)): 3.685; APG (Fig. S3e) ([2]; c0 = 30 (axis unlabelled)): 0.9867; AUT (Fig. S3e) ([2]; c0 = 30 (axis unlabelled)): 2.8387; AV (Fig. S3e) ([2]; c0 = 30 (axis unlabelled)): 3.825; APG (Fig. S3e) ([2]; c0 = 40 (axis unlabelled)): 1.111; AUT (Fig. S3e) ([2]; c0 = 40 (axis unlabelled)): 2.723; AV (Fig. S3e) ([2]; c0 = 40 (axis unlabelled)): 3.834; APG (Fig. S3e) ([2]; c0 = 50 (axis unlabelled)): 0.7488; AUT (Fig. S3e) ([2]; c0 = 50 (axis unlabelled)): 3.18; AV (Fig. S3e) ([2]; c0 = 50 (axis unlabelled)): 3.929
